Laboratory results as given in EP0723956B1, “Basically substituted benzoylguanidines, process for their preparation, their use as medicaments or diagnostics as well as medicaments containing them” (HOECHST AKTIENGESELLSCHAFT, priority 1995, dated 1996).
≈ marks a conversion by molar mass, not a printed value.

Experiments:
[1] = target: T1, Na^+/H^+-Exchangers von Kaninchenerythrocyten (Oryctolagus cuniculus, UniProt P23791); assay: Inhibition of the Na+/H+ exchanger of rabbit erythrocytes (amiloride-sensitive Na+ influx, flame photometry); assay type: cell-based, Kaninchen; settings: Inhibition des Na^+/H^+-Exchangers; erythrocytes of cholesterol-fed rabbits, hyperosmolar salt-sucrose medium, pH 7,4, 37°C
T1 construct: den Na^+-Influx in die Erythrocyten via Na^+/H^+-Austausch flammenphotometrisch bestimmen zu können; endogenous in cells; host or cells: erythrocytes in whole blood from the ear arteries of New Zealand White rabbits
T1 sequence (P23791 whole entry): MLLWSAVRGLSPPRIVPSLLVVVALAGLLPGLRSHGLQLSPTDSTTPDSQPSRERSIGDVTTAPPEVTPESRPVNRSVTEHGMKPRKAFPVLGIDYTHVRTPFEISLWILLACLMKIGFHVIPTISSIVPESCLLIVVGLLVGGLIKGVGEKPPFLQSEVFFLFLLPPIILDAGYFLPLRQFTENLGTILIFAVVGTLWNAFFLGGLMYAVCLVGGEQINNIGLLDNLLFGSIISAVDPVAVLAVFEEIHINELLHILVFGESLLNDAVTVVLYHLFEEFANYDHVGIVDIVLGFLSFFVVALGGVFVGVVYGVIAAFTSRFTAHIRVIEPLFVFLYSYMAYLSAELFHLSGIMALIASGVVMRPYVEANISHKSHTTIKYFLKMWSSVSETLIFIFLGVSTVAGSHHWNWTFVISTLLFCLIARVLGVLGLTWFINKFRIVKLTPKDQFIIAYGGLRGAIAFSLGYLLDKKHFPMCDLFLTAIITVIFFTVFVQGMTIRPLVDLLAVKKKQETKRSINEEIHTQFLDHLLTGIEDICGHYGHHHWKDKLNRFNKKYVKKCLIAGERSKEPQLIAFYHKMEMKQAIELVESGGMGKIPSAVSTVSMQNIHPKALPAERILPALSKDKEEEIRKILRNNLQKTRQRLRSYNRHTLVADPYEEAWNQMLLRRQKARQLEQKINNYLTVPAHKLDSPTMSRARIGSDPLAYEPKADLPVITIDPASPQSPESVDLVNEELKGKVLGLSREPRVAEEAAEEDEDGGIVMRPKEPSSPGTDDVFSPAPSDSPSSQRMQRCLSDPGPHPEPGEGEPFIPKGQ
From the text: Inhibition des Na^+/H^+-Exchangers von Kaninchenerythrocyten
Weiße Neuseeland-Kaninchen (Ivanovas) erhielten eine Standard-Diät mit 2 % Cholesterin für sechs Wochen, um den Na^+/H^+-Austausch zu aktivieren und so den Na^+-Influx in die Erythrocyten via Na^+/H^+-Austausch flammenphotometrisch bestimmen zu können. Das Blut wurde den Ohrarterien entnommen und durch 25 IE Kalium-Heparin ungerinnbar gemacht. Ein Teil jeder Probe wurde zur Doppelbestimmung des Hämatokrits durch Zentrifugieren benutzt. Aliquots von jeweils 100 µl dienten zur Messung des Na^+-Ausgangsgehalts der Erythrocyten.
Um den Amilorid-sensitiven Natrium-lnflux zu bestimmen, wurden 100 µl jeder Blutprobe in jeweils 5 ml eines hyperosmolaren Salz-Sucrose-Mediums (mmol/l: 140 NaCl, 3 KCI, 150 Sucrose, 0,1 Ouabain, 20 Tris-hydroxymethyl-aminomethan) bei pH 7,4 und 37°C inkubiert. Die Erythrocyten wurden danach dreimal mit eiskalter MgCl2-Ouabain-Lösung (mmol/l: 112 MgCl2, 0,1 Ouabain) gewaschen und in 2,0 ml destilliertem Wasser hämolysiert. Der intrazelluläre Natriumgehalt wurde flammenphotometrisch bestimmt.
Der Na^+-Nettoinflux wurde aus der Differenz zwischen Natrium-Ausgangswerten und dem Natriumgehalt der Erythrocyten nach Inkubation errechnet. Der Amiloridhemmbare Natrium-lnflux ergab sich aus der Differenz des Natriumgehalts der Erythrocyten nach Inkubation mit und ohne Amilorid 3 x 10-4 mol/l. Auf diese Weise wurde auch bei den erfindungsgemäßen Verbindungen verfahren.

Rattenherzen = settings: isolated rat hearts; Eur. Heart J. 9 (suppl.1): 167 (1988); cited from earlier work
Water solubility = assay type: physicochemical; settings: Dihydrochlorid, pH = 5.3, read-out: Wasserlöslichkeit

Compound	IC50 [1] [nM]	further results
CN(C)CCS(=O)(=O)c1ccc(Oc2ccc(C(=O)N=C(N)N)cc2S(C)(=O)=O)cc1 [Beispiel 17, 4-[4-(2-Dimethylaminoethylsulfonyl)phenoxy]-3-methylsulfonylbenzoylguanidin]	1000	–
CCN(c1nc(N)c(C(=O)N=C(N)N)nc1Cl)C(C)C [Ethylisopropylamilorid]	–	künstlich ausgelöstes Kammerflimmern (Rattenherzen): Noch potenter als Amilorid
CN=C(NC)SCC(=O)c1ccc(Oc2ccc(C(=O)N=C(N)N)cc2S(C)(=O)=O)cc1 [Beispiel 28, 4-[4-(N,N'-Dimethyl-S-isothiuronyl-acetyl)phenoxy]-3-methylsulfonylbenzoylguanidin]	120	–
NC(N)=NC(=O)c1nc(Cl)c(N)nc1N [Amilorid]	–	künstlich ausgelöstes Kammerflimmern (Rattenherzen): völlig unterdrückt
CN1CCN(S(=O)(=O)c2ccc(Oc3ccc(C(=O)N=C(N)N)cc3C(F)(F)F)cc2)CC1 [Beispiel 4, 4-[4-(4-Methylpiperazinosulfonyl)phenoxy]-3-trifluormethylbenzoylguanidin]	82	–
N=S(N)(=O)c1ccc(Oc2ccc(C(=O)N=C(N)N)cc2C(F)(F)F)cc1 (stereo not shown) [Beispiel 9, 4-(4-lmidamidosulfonyl)phenoxy-3-trifluormethyl-benzoylguanidin]	100	–
CN(C)CCS(=O)(=O)Cc1ccc(Oc2ccc(C(=O)N=C(N)N)cc2C(F)(F)F)cc1 [Beispiel 47, 4-[4-(2-Dimethylaminoethyl)sulfonylmethyl-phenoxy]-3-trifluormethylbenzoyl-guanidin]	70	–
CS(=O)(=O)c1cc(C(=O)N=C(N)N)ccc1Oc1ccc(C(O)Cn2ccnc2)cc1 (stereo not shown) [Beispiel 32, 4-[4-(2-N-lmidazolyl-1-hydroxyethyl)phenoxy]-3-methylsulfonylbenzoylguanidin]	440	–
CS(=O)(=O)c1cc(C(=O)N=C(N)N)ccc1Oc1ccc(S(N)(=O)=O)cc1 [Beispiel 33, 3-Methylsulfonyl-4-(4-sulfamoylphenoxy)benzoylguanidin]	200	–
NC(N)=NC(=O)c1ccc(Oc2ccc(S(=O)(=O)NCCN3CCCCC3)cc2)c(C(F)(F)F)c1 [Beispiel 6, 4-[4-(2-Piperidinethylaminosulfonyl)phenoxy]-3-trifluormethylbenzoylguanidin]	100	–
NC(N)=NC(=O)c1ccc(Oc2ccc(S(N)(=O)=O)cc2)c(C(F)(F)F)c1 [Beispiel 1, 4-(4-Aminosulfonyl)phenoxy-3-trifluormethyl-benzoylguanidin]	800	–
NC(N)=NC(=O)c1ccc(Oc2ccc(S(=O)(=O)NCCN3CCCC3)cc2)c(C(F)(F)F)c1 [Beispiel 5, 4-[4-(2-Pyrolidinethylaminosulfonyl)phenoxy]-3-trifluormethylbenzoylguanidin]	300	–
4-[4-(N-t-Butylimido-N'-t-butyl)sulfamoyl]-3-trifluormethyl-benzoylguanidin [Beispiel 2]	320	–
CS(=O)(=O)c1cc(C(=O)N=C(N)N)ccc1Oc1ccc(C(=O)N=C(N)N)cc1 [Beispiel 18, 4-[(4-Guanidinocarbonyl)phenoxy]-3-methylsulfonylbenzoylguanidin]	200	–
CN(C)CCS(=O)(=O)Cc1ccc(Oc2ccc(C(=O)N=C(N)N)cc2S(C)(=O)=O)cc1 [Beispiel 46, 4-[4-(2-Dimethylaminoethyl)sulfonylmethyl-phenoxy]-3-methylsulfonylbenzoyl-guanidin]	90	–
CN(C)CCSc1ccc(Oc2ccc(C(=O)N=C(N)N)cc2S(C)(=O)=O)cc1 [Beispiel 16, 4-[4-(2-Dimethylaminoethylthio)phenoxy]-3-methylsulfonylbenzoylguanidin]	160	–

Further lines, with some results ahead:

IC50 [1] [nM]	Compound	further results
5	CN(C)CCNS(=O)(=O)c1ccc(Oc2ccc(C(=O)N=C(N)N)cc2C(F)(F)F)cc1 [Beispiel 8, 4-[4-(N-Dimethylaminoethyl)sulfamoyl]phenoxy-3-trifluormethylbenzoylguanidin]	–
50	CN(C)CCc1ccc(Oc2ccc(C(=O)N=C(N)N)cc2S(C)(=O)=O)cc1 [Beispiel 14, 3-Methylsulfonyl-[4-(2-dimethylaminoethyl)phenoxy]benzoyl-guanidin]	–
40	CN(C)CCSc1ccc(Oc2ccc(C(=O)N=C(N)N)cc2C(F)(F)F)cc1 [Beispiel 20, 4-[4-(2-Dimethylaminoethylthio)phenoxy]-3-trifluormethylbenzoylguanidin]	–
50	CN(C)CCN(C)S(=O)(=O)c1ccc(Oc2ccc(C(=O)N=C(N)N)cc2C(F)(F)F)cc1 [Beispiel 3, 4-[4-N-(Dimethylaminoethyl)-methylsulfamoyl]phenoxy-3-trifluormethylbenzoylguanidin]	–
14	CN(C)CCc1ccc(Oc2ccc(C(=O)N=C(N)N)cc2C(F)(F)F)cc1 [Beispiel 21, 3-Trifluormethyl-4-[4-(2-dimethylaminoethyl)phenoxy]benzoyl-guanidin]	solubility (Water solubility): 49 mg/mL (≈ 124 mM)
8	CN(C)CCSCc1ccc(Oc2ccc(C(=O)N=C(N)N)cc2C(F)(F)F)cc1 [Beispiel 19, 4-[4-(2-Dimethylaminoethyl)thiomethyl-phenoxy]-3-trifluormethylbenzoylguanidin]	–
60	CN(C)CCCNS(=O)(=O)c1ccc(Oc2ccc(C(=O)N=C(N)N)cc2C(F)(F)F)cc1 [Beispiel 7, 4-[4-(N-Dimethylamino-n-propyl)sulfamoyl]phenoxy-3-trifluormethylbenzoylguanidin]	–
10	CN(C)CCSCc1ccc(Oc2ccc(C(=O)N=C(N)N)cc2S(C)(=O)=O)cc1 [Beispiel 15, 4-[4-(2-Dimethylaminoethyl)thiomethyl-phenoxy]-3-methylsulfonylbenzoyl-guanidin]	–
